In ChEMBL document CHEMBL1140639, “Leuconoxine, kopsinitarine, kopsijasmine, and kopsinone derivatives from Kopsia” (J Nat Prod, 2007):

How the values were obtained:
Assay type in all cases: functional, cell-based
[1] = Cytotoxicity against human multidrug-resistant KB/VJ300 cells in presence of 0.12 uM vincristine
[2] = Cytotoxicity against human KB/VJ300 cells
KB = experiment: Cytotoxicity against human KB cells

Row | Structure (SMILES) | IC50 [1] | IC50 [2] | IC50 (KB)
1 | COC(=O)C1=C[C@@]23CCCN4CC[C@@]5(c6ccccc6N[C@]15CC2)[C@@H]43 [KOPSIJASMININE] | 38700 nM |  | 
2 | CC[C@]1(O)C[C@H]2CN(CCc3c([nH]c4ccccc34)[C@@](C(=O)OC)(c3cc4c(cc3OC)N(C=O)[C@H]3[C@@](O)(C(=O)OC)[C@H](OC(C)=O)[C@]5(CC)C=CCN6CC[C@]43[C@@H]65)C2)C1 [VINCRISTINE] |  | 1340 nM | 16.7 nM
